# Source: patent publication US6306857A, “Methods for treating or preventing alzheimer's disease using substituted 1-aryl-3-piperazin-1'-yl propanones” (Molecular Geriatrics Corporation, priority 1999, dated 2001)
# Structures can show the parent of a compound that is named as a salt. Where two headings read alike, the source gives them in different places.
# Experiments:
# Format in all cases: cell-based
# [1] = system: microtubule cytoskeleton of cultured human CG neuroblastoma cells; experiment: Antimicrotubule activity (tubulin immunofluorescence microscopy); settings: Neuroblastoma cell, read-out: Concentration where microtubule destabilization occurs
# Description: The compounds of the invention according to formula I are effective in destabilizing microtubules, thus are useful in treating certain neoplastic diseases. Indirect immunofluorescence microscopy using the monoclonal antibodies to tubulin is used herein to determine the activity of the compounds of this invention in promoting depolymerization of the microtubule cytoskeleton in cultured cells. The following assay was employed.
# Cultured human CG neuroblastoma cells were seeded 1:3 from confluent cultures onto sterile 11×22 mm coverslips in 6 well tissue culture plates 16 hr prior to treatment. The following day, the tissue culture medium is removed and the cells are exposed to various concentrations of compounds of this invention in Krebs Ringer Hepes (KRH) buffer containing a final concentration of 0.5% DMSO as carrier. Incubations were performed at 37° C. in a humidified 5% CO2 atmosphere for 2 hr. After incubation, the cells were fixed in 3% TEM grade formaldehyde in PBS for 45 min at room temperature.
# To visualize the effects of the compounds of the invention on the microtubule cytoskeleton, the cells were processed for tubulin immunofluorescence. Briefly, the cells were permeabilized in 0.5% Triton-X 100 in PBS for 5 min. The cells were washed 2× with PBS and aldehydes reduced using 0.5 mg/ml NaBH4 in PBS for 5 min. Subsequently, the cells were blocked for 10 min in 1.5% BSA and 1.5% nonfat dry milk in PBS (blocking solution, BS) for 10 min. The cells were then incubated for 30 min at 37° C. with the monoclonal antibody Tu27B which recognizes b-tubulin (dilution 1:20 in BS). Subsequently, the cells were washed 2× in PBS and once in BS. The cells were then incubated for 30 min at 37° C. with sheep antimouse IgG conjugated to FITC. After incubation, the cells were washed 2× in PBS and once in BS and incubated. for 30 min at 37° C. with rabbit antisheep IgG conjugated to FITC. The cells were rinsed in PBS, counterstained with Hoechst 33285 in PBS (1 μg/ml), and rinsed in PBS. The coverslips were mounted in 9:1 glycerol:PBS containing 1 mg/ml p-phenylenediamine and sealed with nail polish.
# The cells were viewed using a Jenalumar epifluorescence microscope equipped with the proper filters for Fluorescein Isothiocyanate (FITC) excitation and emission. Lack of effect of a compound is evidenced by the presence of an intact microtubule network in interphase cells, or a mitotic spindle dividing cells. Antineoplastic compounds of the invention at effective doses result in the disapperance of microtubules in both interphase and mitotic cells.
# Proteus vulgaris SRI 180 = experiment: agar disc diffusion assay, P. vulgaris; settings: SRI180, 240 ug/disc, about 24 hr at 37° C., Mueller-Hinton agar, read-out: Diameter of the zone of inhibition, P. vulgaris
# Description: (§1) The activity of the compounds is determined using the following assay. The compound is dissolved in DMSO at a concentration of 6 mg/ml and then diluted with water to a final concentration of 3 mg/ml in 50% DMSO (% DMSO was shown not to be inhibitory to the test organisms). An aliquot (0.08 ml) of each drug solution was transferred to filter paper discs (12.7 mm diameter, Scmeicherand Schuell) for use in the agar diffusion assay. The concentration of each drug on the filter paper disc was 240 ug/disc. The test organisms included the following: Gram-positive aerobes (Staphylococcus aureus SRI 1323, Streptococcus pneumoniae SRI 1167); Gram-negative aerobe (Proteus vulgaris SRI 180); and the yeast Candida albicans SRI 523. An agar disc diffusion assay was used to evaluate the antimicrobial activity of the test compounds. Briefly, cultures were prepared from 16-20 hr agar slant cultures by inoculating in physiological saline to a turbidity equivalent to a #0.5 McFarland turbidity standard for the bacteria and a #3 McFarland standard for C. albicans. The surface of Mueller-Hinton agar (15×100 mm plates, mm) were evenly inoculated with each standardized culture using a cotton swab. Filter paper discs containing the drug concentration listed above were then placed on the inoculated agar plates along with a disc containing the solvent used to dissolve each drug. The plates were incubated at 37° C. for about 24 hr and the diameters of the zones of inhibition measured with a vernier caliper. Positive control drugs consisted of streptomycin for use with the bacterial strains and 5-fluorocytosine for use with C. albicans. The positive control drugs were assayed as described above for the compounds of the present invention using the same concentration.
# [2] = system: Streptococcus pneumoniae SRI 1167; experiment: agar disc diffusion assay, S. pneumoniae; settings: 240 ug/disc, about 24 hr at 37° C.; for zone of inhibition at 240 µg/disc: Streptococcus pneumoniae, SRI1167, Mueller-Hinton agar, read-out: Diameter of the zone of inhibition, S. pneumoniae
# Description: as §1
# [3] = system: Staphylococcus aureus SRI 1323; experiment: agar disc diffusion assay, S. aureus; settings: SRI1323, 240 ug/disc, about 24 hr at 37° C., Mueller-Hinton agar, read-out: Diameter of the zone of inhibition, S. aureus
# Description: as §1
# Candida albicans SRI 523 = experiment: agar disc diffusion assay, C. albicans; settings: SRI523, 240 ug/disc, about 24 hr at 37° C., Mueller-Hinton agar, read-out: Diameter of the zone of inhibition, C. albicans
# Description: as §1
# [4] = 2 hr at 37° C., 0.5% DMSO in KRH
Compound,"minimal effective concentration [1, 4] [µM]",zone of inhibition at 240 µg/disc (Proteus vulgaris SRI 180) [mm],zone of inhibition at 240 µg/disc [2] [mm],zone of inhibition at 240 µg/disc [3] [mm],zone of inhibition at 240 µg/disc (Candida albicans SRI 523) [mm],further results
"O=C(CCN1CCN(Cc2ccccc2)CC1)c1ccc(C2CCCCC2)cc1 [Example 27, 1-(p-Cyclohexylphenyl)-3-(4'-benzyl-1'-piperazinyl)-1-propanone dihydrochloride]",20,–,–,–,–,–
"O=C(CCN1CCN(Cc2ccccc2)CC1)c1ccc(Nc2ccc([N+](=O)[O-])cc2[N+](=O)[O-])cc1 [Example 113, 1-(4""-[2'"",4'""-Dinitrophenylamino]phenyl)-3-(4'-benzyl-1'-piperazinyl)-1-propanone dihydrochloride]",–,–,–,–,–,minimal effective concentration ([1]; 2 h): 20 µM
"N#Cc1ccc(C(=O)CCN2CCN(Cc3ccccc3)CC2)s1 [Example 85, 1-(5""-Cyano-2""-thienyl)-3-(4'-benzyl-1'-piperazinyl)-1-propanone dihydrochloride]",20,–,–,–,–,–
"O=C(CCN1CCN(C(=O)c2c(F)cccc2F)CC1)c1ccccc1F [Example 41, 1-(o-Fluorophenyl)-3-[4'-(2"",6""-difluorobenzoyl)-1'-piperazinyl]-1-propanone hydrochloride]",20,–,–,–,–,–
"O=C(CCN1CCN(Cc2ccccc2)CC1)c1conc1-c1ccccc1 [Example 112, 1-(3""-Phenylisoxazol-4""-yl)-3-(4'-benzyl-1'-piperazinyl)-1-propanone dihydrochloride]",20,–,–,–,–,–
"O=C(CCN1CCN(Cc2cc(F)ccc2F)CC1)c1ccsc1 [Example 38, 1-(3""-Thienyl)-3-[4'-(2'"",5'""-difluorobenzyl)-1'-piperazinyl]-1-propanone dihydrochloride]",20,–,–,–,–,–
"N#Cc1cccc(C(=O)CCN2CCN(Cc3ccccc3)CC2)c1 [Example 60, 1-(m-Cyanophenyl)-3-(4'-benzyl-1'-piperazinyl)-1-propanone dihydrochloride]",20,–,–,–,–,–
"O=C(CCN1CCN(C(c2ccccc2)c2ccc(Cl)cc2)CC1)c1ccc(Br)s1 (centres unmarked) [Example 78, 1-(5""-Bromo-2""-thienyl)-3-[4'-(1'""-p-chlorophenyl-1'""-phenylmethyl)-1'-piperazinyl]-1-propanone dihydrochloride]",–,14.5,19.7,16.2,15.2,–
"O=C(CCN1CCN(Cc2ccccc2)CC1)c1ccc(F)c2ccccc12 [Example 21, 1-(4""-Fluoronaphth-1""-yl)-3-(4'-benzyl-1'-piperazinyl)-1-propanone dihydrochloride]",20,0,40.7,33.8,26.6,–
"O=C(CCN1CCN(Cc2ccccc2)CC1)c1csc([N+](=O)[O-])c1 [Example 80, 1-(5""-Nitro-3""-thienyl)-3-(4'-benzyl-1'-piperazinyl)-1-propanone dihydrochloride]",–,13.8,–,17.2,14.5,"Diameter of the zone of inhibition, S. pneumoniae (symbol) ([2]; zone too large to measure): +"
"O=C(CCN1CCN(Cc2ccccc2)CC1)c1cccs1 [Example 7, 1-(2""-Thienyl)-3-(4'-benzyl-1'-piperazinyl)-1-propanone dihydrochloride]",20,–,–,–,–,–
"O=C(CCN1CCN(Cc2ccccc2)CC1)c1ccc(F)c(Br)c1 [Example 25, 1-(p-Fluoro-m-bromophenyl)-3-(4'-benzyl-1'-piperazinyl)-1-propanone dihydrochloride]",–,16,36.3,27.5,26,–
"O=C(CCN1CCN(C(=O)c2ccccc2C(F)(F)F)CC1)c1ccccc1F [Example 43, 1-(o-Fluorophenyl)-3-[4'-(o-trfuoromethylbenzoyl)-1'-piperazinyl]-1-propanone hydrochloride]",–,15.9,25.3,17.7,22.5,–
"O=C(CCN1CCN(Cc2ccccc2)CC1)c1ccc([N+](=O)[O-])cc1 [Example 5, 1-(p-Nitrophenyl)-3-(4'-benzyl-1'-piperazinyl)-1-propanone dihydrochloride]",4,17.3,29.9,22.8,17.6,–
"O=C(CCN1CCN(Cc2ccccc2)CC1)c1cc([N+](=O)[O-])c(Cl)s1 [Example 95, 1-(5""-Chloro-4""-nitro-2""-thienyl)-3-(4'-benzyl-1'-piperazinyl)-1-propanone dihydrochloride]",20,–,–,–,–,–
